Experimental findings from the supplement of paper PMC11208160 are described below.

The nature of this data set: recombinant UMI read abundance after kanamycin selection (control-corrected) (log10(CPM+1)); higher = more efficient recombination; extreme values may be limits of the assay; sequences stand for … in AGTGCAGAGAAAATCGGCCAGTTTTCTCTGCCTGCAGTCCGCATGCCGTGGGACCCCTTGGGTTCTAACCTGTTGCCTAGATTTATGCAGCGGACTGCCTTTCTCCCAAAGTGATAAACCGG…AGGTTGGTTTCACT; site = the 11-nt donor. Here is the method:
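Pooled E. coli donor-specificity screen for the IS621 bridge recombinase. Each library member carries a reprogrammed 11-nt donor and a full-length LE bridge RNA expressed in cis from the natural promoter, with a paired donor-binding loop (8-nt LDG + 4-nt RDG) and a target-binding loop fixed to T5. It is co-electroporated with a T5 target plasmid; recombinase is induced with 0.07 mM IPTG and recombinants are selected on kanamycin. UMIs are counted as CPM, averaged over two biological replicates and corrected by the unselected control. Molecule = full bridge RNA written as DNA, built from the T5 scaffold: LDG = donor specificity nt 1-8, RDG = reverse complement of nt 8-11.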
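Note: IS621 bridge recombinase in Escherichia coli cells against a fixed T5 target plasmid.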

On to “ACACTATCATGGACCGGTTTTCCCGGTAATCCGTATTTGTA (site ACAGTATCTTG)”, for which the “recombinant UMI read abundance (log10)” value was 0.

Take “ACACTTACATGGACCGGTTTTCCCGGTAATCCGTATTTGTT (site ACACTTACTAA)”: the “recombinant UMI read abundance (log10)” value was 0.147.

For the sequence “ACACTTTCATGGACCGGTTTTCCCGGTAATCCGTATTTGCA (site ACACTTTCTTG)”, the “recombinant UMI read abundance (log10)” value came to 2.82.

Consider “ACACTTTCATGGACCGGTTTTCCCGGTAATCCGTATTTGCA (site ACAGTATCTTG)”, for which the “recombinant UMI read abundance (log10)” value came out at 1.19.

Take “ACAGAATCATGGACCGGTTTTCCCGGTAATCCGTATTTGCA (site ACAGAATCTTG)”: the “recombinant UMI read abundance (log10)” value was determined as 2.9.

As for “ACAGAATCATGGACCGGTTTTCCCGGTAATCCGTATTTGCA (site ACAGCATCTTG)”, the “recombinant UMI read abundance (log10)” value was found to be 2.64.

As for “ACAGAATCATGGACCGGTTTTCCCGGTAATCCGTATTTGCA (site ACAGGATCTTG)”, the “recombinant UMI read abundance (log10)” value was found to be 2.45.

With “ACAGAATCATGGACCGGTTTTCCCGGTAATCCGTATTTGCA (site ACAGTATCTTG)”, the “recombinant UMI read abundance (log10)” value was 1.8.

On to “ACAGACTCATGGACCGGTTTTCCCGGTAATCCGTATTTGCA (site ACAGACTCTTG)”, for which the “recombinant UMI read abundance (log10)” value was determined as 2.44.

Take “ACAGACTCATGGACCGGTTTTCCCGGTAATCCGTATTTGCA (site ACAGTATCTTG)”: the “recombinant UMI read abundance (log10)” value stood at 0.

For the sequence “ACAGAGGCATGGACCGGTTTTCCCGGTAATCCGTATTTGTG (site ACAGAGGCTCA)”, the “recombinant UMI read abundance (log10)” value came to 1.14.

Turning to “ACAGGATCATGGACCGGTTTTCCCGGTAATCCGTATTTGCA (site ACAGAATCTTG)”, the “recombinant UMI read abundance (log10)” value came to 2.47.

Turning to “ACAGGATCATGGACCGGTTTTCCCGGTAATCCGTATTTGCA (site ACAGCATCTTG)”, the “recombinant UMI read abundance (log10)” value was found to be 2.01.

Take “ACAGGATCATGGACCGGTTTTCCCGGTAATCCGTATTTGCA (site ACAGGATCTTG)”: the “recombinant UMI read abundance (log10)” value is 1.77.

As to “ACAGGATCATGGACCGGTTTTCCCGGTAATCCGTATTTGCA (site ACAGTATCTTG)”, the “recombinant UMI read abundance (log10)” value was found to be 2.38.

Take “ACAGTAACATGGACCGGTTTTCCCGGTAATCCGTATTTGCT (site ACAGTAACTAG)”: the “recombinant UMI read abundance (log10)” value worked out at 2.7.

On to “ACAGTAACATGGACCGGTTTTCCCGGTAATCCGTATTTGCT (site ACAGTATCTTG)”, for which the “recombinant UMI read abundance (log10)” value came out at 0.994.

In the case of “ACAGTACCATGGACCGGTTTTCCCGGTAATCCGTATTTGCA (site ACAGTAACTTG)”, the “recombinant UMI read abundance (log10)” value stood at 0.

As for “ACAGTACCATGGACCGGTTTTCCCGGTAATCCGTATTTGCA (site ACAGTACCTTG)”, the “recombinant UMI read abundance (log10)” value stood at 0.00459.

Consider “ACAGTACCATGGACCGGTTTTCCCGGTAATCCGTATTTGCA (site ACAGTAGCTTG)”, for which the “recombinant UMI read abundance (log10)” value was found to be 0.138.

For “ACAGTACCATGGACCGGTTTTCCCGGTAATCCGTATTTGCA (site ACAGTATCTTG)”, the “recombinant UMI read abundance (log10)” value was determined as 1.71.

In the case of “ACAGTAGCATGGACCGGTTTTCCCGGTAATCCGTATTTGCG (site ACAGTAGCTCG)”, the “recombinant UMI read abundance (log10)” value was 2.42.

For “ACAGTAGCATGGACCGGTTTTCCCGGTAATCCGTATTTGCG (site ACAGTATCTTG)”, the “recombinant UMI read abundance (log10)” value is 0.736.

Take “ACAGTATCATGGACCGGTTTTCCCGGTAATCCGTATTTGAA (site ACAGTATCTTA)”: the “recombinant UMI read abundance (log10)” value stood at 2.34.

For “ACAGTATCATGGACCGGTTTTCCCGGTAATCCGTATTTGAA (site ACAGTATCTTC)”, the “recombinant UMI read abundance (log10)” value turned out to be 1.73.

Regarding “ACAGTATCATGGACCGGTTTTCCCGGTAATCCGTATTTGAA (site ACAGTATCTTG)”, the “recombinant UMI read abundance (log10)” value was determined as 0.829.

Consider “ACAGTATCATGGACCGGTTTTCCCGGTAATCCGTATTTGAA (site ACAGTATCTTT)”, for which the “recombinant UMI read abundance (log10)” value stood at 3.04.

In the case of “ACAGTATCATGGACCGGTTTTCCCGGTAATCCGTATTTGAC (site ACAGTATCTGT)”, the “recombinant UMI read abundance (log10)” value was determined as 3.52.

For “ACAGTATCATGGACCGGTTTTCCCGGTAATCCGTATTTGAC (site ACAGTATCTTG)”, the “recombinant UMI read abundance (log10)” value came out at 1.15.

Consider “ACAGTATCATGGACCGGTTTTCCCGGTAATCCGTATTTGAC (site CTAGTATCTGT)”, for which the “recombinant UMI read abundance (log10)” value was determined as 1.64.

“ACAGTATCATGGACCGGTTTTCCCGGTAATCCGTATTTGCC (site ACAGTATCTAG)”: the “recombinant UMI read abundance (log10)” value is 1.42.

With “ACAGTATCATGGACCGGTTTTCCCGGTAATCCGTATTTGCC (site ACAGTATCTCG)”, the “recombinant UMI read abundance (log10)” value turned out to be 1.77.

Regarding “ACAGTATCATGGACCGGTTTTCCCGGTAATCCGTATTTGCC (site ACAGTATCTGG)”, the “recombinant UMI read abundance (log10)” value was 2.92.

On to “ACAGTATCATGGACCGGTTTTCCCGGTAATCCGTATTTGCC (site ACAGTATCTTG)”, for which the “recombinant UMI read abundance (log10)” value was 1.9.

For the sequence “ACAGTATCATGGACCGGTTTTCCCGGTAATCCGTATTTGTA (site ACAGTATCTTA)”, the “recombinant UMI read abundance (log10)” value was found to be 3.08.

On to “ACAGTATCATGGACCGGTTTTCCCGGTAATCCGTATTTGTA (site ACAGTATCTTC)”, for which the “recombinant UMI read abundance (log10)” value is 2.02.

Take “ACAGTATCATGGACCGGTTTTCCCGGTAATCCGTATTTGTA (site ACAGTATCTTG)”: the “recombinant UMI read abundance (log10)” value came out at 2.51.

“ACAGTATCATGGACCGGTTTTCCCGGTAATCCGTATTTGTA (site ACAGTATCTTT)”: the “recombinant UMI read abundance (log10)” value worked out at 2.44.

With “ACAGTGTCATGGACCGGTTTTCCCGGTAATCCGTATTTGAA (site ACAGTATCTTG)”, the “recombinant UMI read abundance (log10)” value was determined as 1.04.

For “ACAGTGTCATGGACCGGTTTTCCCGGTAATCCGTATTTGAA (site ACAGTGTCTTT)”, the “recombinant UMI read abundance (log10)” value was 3.19.

For the sequence “ACAGTTCCATGGACCGGTTTTCCCGGTAATCCGTATTTGCC (site ACAGTTCCTGG)”, the “recombinant UMI read abundance (log10)” value was 0.

For the sequence “ACATCAACATGGACCGGTTTTCCCGGTAATCCGTATTTGTC (site ACATCAACTGA)”, the “recombinant UMI read abundance (log10)” value is 1.34.

In the case of “ACATCAACATGGACCGGTTTTCCCGGTAATCCGTATTTGTG (site ACATCAACTCA)”, the “recombinant UMI read abundance (log10)” value amounted to 0.878.

“ACATCAACATGGACCGGTTTTCCCGGTAATCCGTATTTGTG (site ACATCCACTCA)”: the “recombinant UMI read abundance (log10)” value was found to be 0.0219.

In the case of “ACATCAACATGGACCGGTTTTCCCGGTAATCCGTATTTGTG (site ACATCGACTCA)”, the “recombinant UMI read abundance (log10)” value came out at 0.0265.

As for “ACATCAACATGGACCGGTTTTCCCGGTAATCCGTATTTGTG (site ACATCTACTCA)”, the “recombinant UMI read abundance (log10)” value was found to be 0.206.

As to “ACATCCTCATGGACCGGTTTTCCCGGTAATCCGTATTTGTC (site ACATCCTCTGA)”, the “recombinant UMI read abundance (log10)” value came to 2.8.

On to “ACATGTACATGGACCGGTTTTCCCGGTAATCCGTATTTGAC (site ACATGTACTGT)”, for which the “recombinant UMI read abundance (log10)” value is 1.76.

Consider “ACATTATCATGGACCGGTTTTCCCGGTAATCCGTATTTGCA (site ACAATATCTTG)”, for which the “recombinant UMI read abundance (log10)” value turned out to be 1.92.

Regarding “ACATTATCATGGACCGGTTTTCCCGGTAATCCGTATTTGCA (site ACACTATCTTG)”, the “recombinant UMI read abundance (log10)” value stood at 2.24.

Consider “ACATTATCATGGACCGGTTTTCCCGGTAATCCGTATTTGCA (site ACAGTATCTTG)”, for which the “recombinant UMI read abundance (log10)” value was 1.69.

Take “ACATTATCATGGACCGGTTTTCCCGGTAATCCGTATTTGCA (site ACATTATCTTG)”: the “recombinant UMI read abundance (log10)” value is 2.01.

For “ACCAACCCATGGACCGGTTTTCCCGGTAATCCGTATTTGCG (site ACCAACCCTCG)”, the “recombinant UMI read abundance (log10)” value came out at 0.

As to “ACCAAGACATGGACCGGTTTTCCCGGTAATCCGTATTTGGG (site ACCAAGACTCC)”, the “recombinant UMI read abundance (log10)” value is 0.0181.

Consider “ACCAAGACATGGACCGGTTTTCCCGGTAATCCGTATTTGGG (site ACCCAGACTCC)”, for which the “recombinant UMI read abundance (log10)” value was determined as 0.0318.

With “ACCAAGACATGGACCGGTTTTCCCGGTAATCCGTATTTGGG (site ACCGAGACTCC)”, the “recombinant UMI read abundance (log10)” value was 0.0218.

As for “ACCAAGACATGGACCGGTTTTCCCGGTAATCCGTATTTGGG (site ACCTAGACTCC)”, the “recombinant UMI read abundance (log10)” value was determined as 0.0189.

As for “ACCAGAACATGGACCGGTTTTCCCGGTAATCCGTATTTGAA (site ACCAGAACTTT)”, the “recombinant UMI read abundance (log10)” value is 1.72.

On to “ACCAGTCCATGGACCGGTTTTCCCGGTAATCCGTATTTGCG (site GATGCATCTTA)”, for which the “recombinant UMI read abundance (log10)” value turned out to be 0.

Turning to “ACCAGTGCATGGACCGGTTTTCCCGGTAATCCGTATTTGGT (site ACAAGTGCTAC)”, the “recombinant UMI read abundance (log10)” value was 0.0927.

With “ACCAGTGCATGGACCGGTTTTCCCGGTAATCCGTATTTGGT (site ACCAGTGCTAC)”, the “recombinant UMI read abundance (log10)” value was 0.472.

For the sequence “ACCAGTGCATGGACCGGTTTTCCCGGTAATCCGTATTTGGT (site ACGAGTGCTAC)”, the “recombinant UMI read abundance (log10)” value came to 0.0125.

With “ACCAGTGCATGGACCGGTTTTCCCGGTAATCCGTATTTGGT (site ACTAGTGCTAC)”, the “recombinant UMI read abundance (log10)” value was 0.19.

For the sequence “ACCCAAGCATGGACCGGTTTTCCCGGTAATCCGTATTTGAG (site AACCAAGCTCT)”, the “recombinant UMI read abundance (log10)” value came to 0.712.

Turning to “ACCCAAGCATGGACCGGTTTTCCCGGTAATCCGTATTTGAG (site ACCCAAGCTCT)”, the “recombinant UMI read abundance (log10)” value is 1.97.
